{
  "source": "patent USRE48461E1",
  "about": "“Modulation of androgen receptor expression” (Ionis Pharmaceuticals, Inc., priority 2012, dated 2021)",
  "key": {"LMR20 cells": {"system": "LMR20 cells", "experiment": "MDV3100 IC50 in LMR20 clone compared to parental LnCaP cells", "format": "cell-based, human"}, "full-length AR": {"system": "full-length AR", "experiment": "Western blot of full-length AR in MDV3100-resistant C4-2B cells", "format": "cell-based, human", "conditions": "C4-2B MR cells (Example 16)"}, "AR-V7": {"system": "AR-V7", "experiment": "Western blot of AR-V7 in MDV3100-resistant C4-2B cells", "format": "cell-based, human", "conditions": "C4-2B MR cells (Example 16)", "protocol": "ISIS 549372, ISIS 549434, and ISIS 554221 at 1 μM concentration of antisense oligonucleotide were each added to the culture media at 1 μM concentration for free uptake by the cells. After a treatment period of 2 days, cells were harvested in RIPA buffer containing protease inhibitors. The presence of bands for full-length AR, as well as the variant form, AR-V7, was detected by western blot using AR antibody (N-20, Santa Cruz).\nWestern analysis of full-length AR, as well as the AR-V7 variant, was also conducted in a manner similar to the assay described above."}, "AR full-length mRNA": {"system": "AR full-length mRNA", "experiment": "AR full-length mRNA in CWR22-RV1 cells (RNAiMax, RTS3559)", "format": "cell-based, human", "conditions": "6 days"}, "CWR22-RV1 cells": {"system": "CWR22-RV1 cells", "experiment": "CWR22-RV1 cell proliferation (CellTiter 96)", "format": "cell-based, human", "conditions": "RNAiMax, 6 days"}, "AR mRNA": {"system": "AR mRNA", "experiment": "AR mRNA in C4-2B cells by free uptake (hAR_LTS00943)", "format": "cell-based, human", "conditions": "24 hrs; for Percent inhibition of AR full-length mRNA: free uptake", "protocol": "(§1) Cells were plated at a concentration of 1,000 cells/well in 96-well plates to measure cell proliferation, and at 4,000 cells/well to measure target reduction. ISIS 549458, ISIS 549372, ISIS 549434, and ISIS 554221 were added individually at 0.04 μM, 0.20 μM, 1.00 μM, or 5.00 μM. After an incubation period of 24 hrs, mRNA levels were measured using hAR_LTS00943."}, "C4-2B cells": {"system": "C4-2B cells", "experiment": "C4-2B cell proliferation by free uptake (MTT)", "format": "cell-based, human", "conditions": "day 6", "protocol": "as §1\nOn day 6, cells plated for measuring proliferation were incubated with MTT reagent until the development of color. Color intensity was measured using a spectrophotometer at 490 nm."}, "[1]": {"conditions": "cynomolgus monkey, in vivo, sc, 40 mg/kg", "experimental": "(§2) Prior to the study, the monkeys were kept in quarantine for a 30-day period, during which the animals were observed daily for general health. The monkeys were 2-4 years old and weighed between 2 and 4 kg. Thirteen groups of four randomly assigned male cynomolgus monkeys each were injected subcutaneously with ISIS oligonucleotide or PBS. PBS solution or ISIS oligonucleotides, at a dose of 40 mg/kg, were administered with a loading regimen consisting of four doses on the first week of the study (days 1, 3, 5, and 7), followed by a maintenance regimen consisting of once weekly administration starting on Day 14 (weeks 2 to 6). Subcutaneous injections were performed in clock-wise rotations at 4 sites on the back; one site per dose. The injection sites were delineated by tattoo, while sedated using ketamine, and were separated by a minimum of 3 cm.\nKidney function was also assessed by urinalysis. Fresh urine from all animals was collected on day 44 using a clean cage pan on wet ice. Food was removed overnight the day before fresh urine collection was done but water was supplied. The total protein and creatinine levels were measured using a Toshiba 120FR NEO automated chemistry analyzer (Toshiba Co., Japan) and the protein to creatinine ratio was calculated."}, "[2]": {"experiment": "Hematological parameters in cynomolgus monkeys", "conditions": "cynomolgus monkey, 40 mg/kg s.c., day 44", "experimental": "as §2\nTo evaluate any effect of ISIS oligonucleotides in cynomolgus monkeys on hematologic parameters, blood samples of approximately 0.5 mL of blood was collected day 44 from each of the available study animals in tubes containing K2-EDTA. Samples were analyzed for red blood cell (RBC) count, white blood cells (WBC) count, platelet count, hemoglobin content and hematocrit, using an ADVIA2120i hematology analyzer (SIEMENS, USA)."}, "[3]": {"experiment": "Plasma BUN and creatinine in cynomolgus monkeys", "conditions": "cynomolgus monkey, 40 mg/kg s.c., day 44", "experimental": "as §2\nTo evaluate the effect of ISIS oligonucleotides on kidney function, the monkeys were fasted overnight. Approximately, 1.5 mL of blood samples were collected from all the study groups on day 44. Blood was collected in tubes without anticoagulant for serum separation. The tubes were kept at room temperature for a minimum of 90 min and then centrifuged at 3,000 rpm for 10 min. Levels of BUN and creatinine were measured using a Toshiba 120FR NEO chemistry analyzer (Toshiba Co., Japan)."}, "[4]": {"experiment": "Liver function markers in cynomolgus monkey plasma", "conditions": "40 mg/kg s.c., day 44", "experimental": "as §2\nTo evaluate the effect of ISIS oligonucleotides on hepatic function, the monkeys were fasted overnight. Approximately, 1.5 mL of blood samples were collected on day 44 from all the study groups. Blood was collected in tubes without anticoagulant for serum separation. The tubes were kept at room temperature for a minimum of 90 min and then centrifuged at 3,000 rpm for 10 min. Levels of various liver function markers were measured using a Toshiba 120FR NEO chemistry analyzer (Toshiba Co., Japan)."}, "[5]": {"experiment": "Full-length oligonucleotide concentration in kidney and liver of cynomolgus monkeys", "conditions": "cynomolgus monkey, 40 mg/kg subcutaneously", "experimental": "as §2\nThe concentrations of the full-length oligonucleotide in the kidney and the liver of select treatment groups were measured. The method used is a modification of previously published methods (Leeds et al., 1996; Geary et al., 1999) which consist of a phenol-chloroform (liquid-liquid) extraction followed by a solid phase extraction."}},
  "data": [
    {"molecule": "CNC(=O)c1ccc(N2C(=S)N(c3ccc(C#N)c(C(F)(F)F)c3)C(=O)C2(C)C)cc1F", "note": "[MDV3100, 4-(3-(4-cyano-3-(trifluoromethyl)phenyl)-5,5-dimethyl-4-oxo-2-thioxoimidazolidin-1-yl)-2-fluoro-N-methylbenzamide, reference compound]", "values": [
      {"measurement": "increase in IC50 of MDV3100 in LMR20 compared to parental LnCaP cells", "setting": "LMR20 cells", "result": "approximately ten-fold increase in IC50"}
    ]},
    {"molecule": "GTTGATTTAATGGTTG (all phosphorothioate, sugars by position not given here; further chemistry not fully specified) [ISIS 549458]", "values": [
      {"measurement": "levels of full-length AR (Western analysis)", "setting": "full-length AR", "result": "reduced levels of full-length AR and AR-V7"},
      {"measurement": "levels of AR-V7 (Western analysis)", "setting": "AR-V7", "result": "reduced levels of full-length AR and AR-V7"},
      {"measurement": "Percent inhibition of AR full-length mRNA", "setting": "AR full-length mRNA; dose 5.0 nM", "result": 41, "unit": "%"},
      {"measurement": "Percent inhibition of AR full-length mRNA", "setting": "AR full-length mRNA; dose 16.7 nM", "result": 61, "unit": "%"},
      {"measurement": "Percent inhibition of AR full-length mRNA", "setting": "AR full-length mRNA; dose 50.0 nM", "result": 78, "unit": "%"},
      {"measurement": "Percent inhibition of cell proliferation", "setting": "CWR22-RV1 cells; dose 5.0 nM", "result": 0, "unit": "%"},
      {"measurement": "Percent inhibition of cell proliferation", "setting": "CWR22-RV1 cells; dose 16.7 nM", "result": 17, "unit": "%"},
      {"measurement": "Percent inhibition of cell proliferation", "setting": "CWR22-RV1 cells; dose 50.0 nM", "result": 40, "unit": "%"},
      {"measurement": "AR mRNA expression", "setting": "AR mRNA; free uptake 0.04-5.00 μM", "result": "inhibited AR mRNA expression more potently than ISIS 554221"},
      {"measurement": "Percent inhibition of AR full-length mRNA", "setting": "AR mRNA; dose 0.04 μM", "result": 16, "unit": "%"},
      {"measurement": "Percent inhibition of AR full-length mRNA", "setting": "AR mRNA; dose 0.20 μM", "result": 48, "unit": "%"},
      {"measurement": "Percent inhibition of AR full-length mRNA", "setting": "AR mRNA; dose 1.00 μM", "result": 80, "unit": "%"},
      {"measurement": "Percent inhibition of AR full-length mRNA", "setting": "AR mRNA; dose 5.00 μM", "result": 86, "unit": "%"},
      {"measurement": "Percent inhibition of cell proliferation", "setting": "C4-2B cells; dose 0.04 μM", "result": 7, "unit": "%"},
      {"measurement": "Percent inhibition of cell proliferation", "setting": "C4-2B cells; dose 0.20 μM", "result": 31, "unit": "%"},
      {"measurement": "Percent inhibition of cell proliferation", "setting": "C4-2B cells; dose 1.00 μM", "result": 45, "unit": "%"},
      {"measurement": "Percent inhibition of cell proliferation", "setting": "C4-2B cells; dose 5.00 μM", "result": 41, "unit": "%"}
    ]},
    {"molecule": "TTGATTTAATGGTTGC [ISIS 560131] (MOE and (S)-cEt gapmer chemistry, further chemistry not given here)", "values": [
      {"measurement": "Urine protein/creatinine ratio", "setting": "[1]", "result": 0.02},
      {"measurement": "tolerability: hematology", "setting": "[2]", "result": "well tolerated in terms of the hematology of the monkeys"},
      {"measurement": "tolerability: kidney function", "setting": "[3]", "result": "well tolerated in terms of the kidney function of the monkeys"},
      {"measurement": "tolerability: liver function markers", "setting": "[4]", "result": "well tolerated in terms of the liver function markers"},
      {"measurement": "Oligonucleotide concentration, Kidney", "setting": "[5]", "result": 2029, "unit": "μg/g tissue"}
    ]}
  ]
}
